The test system of one assay is frog skin. Nature of the assay: Frog skin assay: melanosome dispersion (skin darkening) in vitro. It counts as cell-based, Rana pipiens. The note with it: for Creeping potency (percentage skin darkening at a particular dose increases with time): frog skin bioassay; for Potencies Relative to α-MSH, Frog Skin Assay: tested in the range 10^-12 to 10^-9 M, compared to half-maximal effective dose of α-MSH (10^-10 M). How it is done: (§1) The peptides described above were examined to determine the relative potencies of the peptides in respect to the stimulation of a melanosome dispersion in vitro using the frog (Rana pipiens) and the lizard (Anolis carolinensis) [see Science 213:1025 (1981)]. These assays are recognized by the scientific communitty to be a fairly accurate representation of results that would be expected when the test substances are administered to vertebrates in vivo; if activity is found when the test substances are tested in the frog skin assay and the lizard skin assay, similar activity would be expected if the test substances are administered to vertebrates, i.e, darkening in the two assays would indicate that darkening would also occur in vertebrates. These assays measure the amount of light reflected from the surface of the skins in vitro. In response to melanotropic peptides, melanosomes within integumental melanocytes migrate from a perinuclear position into the dendritic processes of the pigment cells. This centrifugal organellar dispersion results in a change of color (darkening) of the skins which is measured by a Photovolt reflectometer and is expressed as the percent response compared to the initial (time zero) reflectance value. | ^a = all peptide derivatives were tested in the range of 10^-12 t | 10^-9 M concentration; compared to the halfmaximal effective dose of | aMSH in the frog skin assay (10^-10 M), or in the lizard skin assay | (10^-9 M).

Another assay relates to lizard skin. Nature of the assay: Lizard skin assay: melanosome dispersion (skin darkening) in vitro. In kind it is cell-based, Anolis carolinensis. The note with it: tested in the range 10^-12 to 10^-9 M; compared to half-maximal effective dose of α-MSH (10^-9 M). How it is done:
as §1

In assay [1] the test system is crude cell membranes of B-16 mouse melanoma cells. Nature of the assay: Affinity of peptide to homogenized crude cell membranes (HPLC of supernatant and pellet extract). In kind it is binding. As for the experimental part: 0.3 μmole of peptide SHU-9002 was dissolved in 1 ml solution of homogenized crude cell membranes, obtained from about 0.6 million B-16 mouse melanoma cells, in phosphate buffer. After 5 hrs, the suspension was centrifuged at 10,000×g for 10 min. The pellet was saved and the supernatant subjected to HPLC on a C-18 column.
The pellet saved above was treated with DMSO-0.1% aq. TFA mixture (1:1), centrifuged as before and the supernatant subjected to HPLC as earlier.

Non-standard residues stand in square brackets, D forms with d. Residues, ends and D or L forms follow the SMILES beside them.

On to `CCCC[C@H](NC(=O)[C@H](CO)NC(=O)[C@H](Cc1ccc(O)cc1)NC(=O)[C@H](CO)NC(C)=O)C(=O)N[C@H]1CCC(=O)N[C@@H](CCCNC(=N)N)C(=O)N[C@@H](CCCNC(=N)N)C(=O)NCCCC[C@@H](C(=O)N2CCC[C@H]2C(=O)N[C@H](C(N)=O)C(C)C)NC(=O)CNC(=O)[C@H](Cc2c[nH]c3ccccc23)NC(=O)[C@H](CCCNC(=N)N)NC(=O)[C@@H](Cc2ccccc2)NC(=O)[C@H](Cc2c[nH]cn2)NC1=O` [SHU 9002], for which, in the assay with frog skin, the “Creeping potency (percentage skin darkening at a particular dose increases with time)” value was “exhibited creeping potency” and the “Potencies Relative to α-MSH, Frog Skin Assay” value was determined as 25. Moreover, the “Potencies Relative to α-MSH, Lizard Skin Assay” value in the assay with lizard skin was 2. In addition, in assay [1] (0.3 μmole peptide in 1 ml membrane homogenate from about 0.6 million cells, phosphate buffer, 5 hrs, centrifuged 10,000×g 10 min), the “Presence of peptide in supernatant after incubation with cell membranes (HPLC, C-18)” value is listed as “no evidence for the presence of the peptide SHU-9002 in the supernatant”. Further, the “Affinity to the cell membranes” value in assay [1] (conclusion from supernatant and pellet HPLC) was “marked affinity”. In addition, the “Peptide recovered from membrane pellet (HPLC after DMSO-0.1% aq. TFA 1:1 treatment)” value in assay [1] (pellet of the 5 hrs incubation) is “elution pattern corresponding to the SHU-9002 was obtained”.

Take `CCCC[C@H](NC(=O)[C@H](CO)NC(=O)[C@H](Cc1ccc(O)cc1)NC(=O)[C@H](CO)NC(C)=O)C(=O)N[C@H]1CCC(=O)N[C@@H](CCCCN)C(=O)N[C@@H](CCCCN)C(=O)NCCCC[C@@H](C(=O)N2CCC[C@H]2C(=O)N[C@H](C(N)=O)C(C)C)NC(=O)CNC(=O)[C@H](Cc2c[nH]c3ccccc23)NC(=O)[C@H](CCCNC(=N)N)NC(=O)[C@@H](Cc2ccccc2)NC(=O)[C@H](Cc2c[nH]cn2)NC1=O` [SHU 9009]: in the assay on frog skin, the “Potencies Relative to α-MSH, Frog Skin Assay” value is 100. In addition, in the assay on lizard skin, the “Potencies Relative to α-MSH, Lizard Skin Assay” value is on record as 5.

In the case of `CCCC[C@H](NC(=O)[C@H](CO)NC(=O)[C@H](Cc1ccc(O)cc1)NC(=O)[C@H](CO)NC(C)=O)C(=O)N[C@H]1CCC(=O)N[C@@H](CCCCN)C(=O)N[C@@H](CCCNC(=N)N)C(=O)NCCCC[C@@H](C(=O)N2CCC[C@H]2C(=O)N[C@H](C(N)=O)C(C)C)NC(=O)CNC(=O)[C@H](Cc2c[nH]c3ccccc23)NC(=O)[C@H](CCCNC(=N)N)NC(=O)[C@@H](Cc2ccccc2)NC(=O)[C@H](Cc2c[nH]cn2)NC1=O` [SHU 9010], in the assay on frog skin, the “Creeping potency (percentage skin darkening at a particular dose increases with time)” value is “exhibited creeping potency” and the “Potencies Relative to α-MSH, Frog Skin Assay” value is reported as 145.

On to `CC(=O)N[C@@H](CO)C(=O)N[C@@H](Cc1ccc(O)cc1)C(=O)N[C@@H](CCCCN)C(=O)N[C@@H](CCCCN)C(=O)N[C@H]1CCC(=O)N[C@@H](CCCNC(=N)N)C(=O)N[C@@H](CCCCN)C(=O)NCCCC[C@@H](C(=O)N2CCC[C@H]2C(=O)N[C@H](C(N)=O)C(C)C)NC(=O)CNC(=O)[C@H](Cc2c[nH]c3ccccc23)NC(=O)[C@H](CCCNC(=N)N)NC(=O)[C@@H](Cc2ccccc2)NC(=O)[C@H](Cc2c[nH]cn2)NC1=O` [SHU 9013], for which the “Potencies Relative to α-MSH, Frog Skin Assay” value in the assay on frog skin stood at 1. For the same compound, in the assay with lizard skin, the “Potencies Relative to α-MSH, Lizard Skin Assay” value was 4.

Consider `CCCC[C@H](NC(=O)[C@H](CO)NC(=O)[C@H](Cc1ccc(O)cc1)NC(=O)[C@H](CO)NC(C)=O)C(=O)N[C@H]1CCC(=O)N[C@@H](CCCNC(=N)N)C(=O)N[C@@H](CCCCN)C(=O)NCCCC[C@@H](C(=O)N2CCC[C@H]2C(=O)N[C@H](C(N)=O)C(C)C)NC(=O)CNC(=O)[C@H](Cc2c[nH]c3ccccc23)NC(=O)[C@H](CCCNC(=N)N)NC(=O)[C@@H](Cc2ccccc2)NC(=O)[C@H](Cc2c[nH]cn2)NC1=O` [SHU 9014], for which, in the assay on frog skin, the “Potencies Relative to α-MSH, Frog Skin Assay” value came out at 20. Moreover, the “Potencies Relative to α-MSH, Lizard Skin Assay” value in the assay on lizard skin was found to be 4.

In the case of `CCCC[C@H](NC(C)=O)C(=O)N[C@H]1CC(=O)N[C@@H](CCCCN)C(=O)N[C@@H](CCCNC(=N)N)C(=O)NCCCC[C@@H](C(N)=O)NC(=O)[C@H](Cc2c[nH]c3ccccc23)NC(=O)[C@H](CCCNC(=N)N)NC(=O)[C@@H](Cc2ccccc2)NC(=O)[C@H](Cc2c[nH]cn2)NC1=O` [SHU 9018], the “Potencies Relative to α-MSH, Frog Skin Assay” value in the assay on frog skin was found to be 0.05. In the assay with lizard skin, the “Potencies Relative to α-MSH, Lizard Skin Assay” value came to 10.

Take `CCCC[C@H](NC(C)=O)C(=O)N[C@H]1CC(=O)N[C@@H](CCCCN)C(=O)N[C@@H](CCCCN)C(=O)NCCCC[C@@H](C(N)=O)NC(=O)[C@H](Cc2c[nH]c3ccccc23)NC(=O)[C@H](CCCNC(=N)N)NC(=O)[C@@H](Cc2ccccc2)NC(=O)[C@H](Cc2c[nH]cn2)NC1=O` [SHU 9019]: the “Potencies Relative to α-MSH, Lizard Skin Assay” value in the assay on lizard skin turned out to be 12.5.

Consider `CCCC[C@H](NC(C)=O)C(=O)N[C@H]1CC(=O)N[C@@H](CCCNC(=N)N)C(=O)N[C@@H](CCCNC(=N)N)C(=O)NCCCC[C@@H](C(N)=O)NC(=O)[C@H](Cc2c[nH]c3ccccc23)NC(=O)[C@H](CCCNC(=N)N)NC(=O)[C@@H](Cc2ccccc2)NC(=O)[C@H](Cc2c[nH]cn2)NC1=O` [SHU 9020], for which the “Potencies Relative to α-MSH, Frog Skin Assay” value with frog skin was 0.14. In addition, the “Potencies Relative to α-MSH, Lizard Skin Assay” value in the assay on lizard skin is reported as 6.7.

Regarding `CCCC[C@H](NC(C)=O)C(=O)N[C@H]1CC(=O)N[C@@H](CCCNC(=N)N)C(=O)N[C@@H](CCCCN)C(=O)NCCCC[C@@H](C(N)=O)NC(=O)[C@H](Cc2c[nH]c3ccccc23)NC(=O)[C@H](CCCNC(=N)N)NC(=O)[C@@H](Cc2ccccc2)NC(=O)[C@H](Cc2c[nH]cn2)NC1=O` [SHU 9021], the “Potencies Relative to α-MSH, Frog Skin Assay” value in the assay with frog skin was found to be 0.25. Moreover, the “Potencies Relative to α-MSH, Lizard Skin Assay” value in the assay with lizard skin worked out at 13.4.

On to `CCCC[C@@H]1NC(=O)CC[C@H](NC(=O)[C@H](CCCC)NC(=O)[C@H](CO)NC(=O)[C@H](Cc2ccc(O)cc2)NC(=O)[C@H](CO)NC(C)=O)C(=O)N[C@@H](Cc2c[nH]cn2)C(=O)N[C@H](Cc2ccccc2)C(=O)N[C@@H](CCCNC(=N)N)C(=O)N[C@@H](Cc2c[nH]c3ccccc23)C(=O)NCC(=O)N[C@H](C(=O)N2CCC[C@H]2C(=O)N[C@H](C(N)=O)C(C)C)CCCCNC(=O)[C@H](CCCC)NC1=O` [SHU 9026], for which the “Potencies Relative to α-MSH, Frog Skin Assay” value in the assay with frog skin amounted to 7.

`CC(=O)N[C@@H](CO)C(=O)N[C@@H](Cc1ccc(O)cc1)C(=O)N[C@@H](CCCCN)C(=O)N[C@@H](CCCCN)C(=O)N[C@@H](CCC(=O)O)C(=O)N[C@@H](Cc1c[nH]cn1)C(=O)N[C@H](Cc1ccccc1)C(=O)N[C@@H](CCCNC(=N)N)C(=O)N[C@@H](Cc1c[nH]c2ccccc12)C(=O)NCC(=O)N[C@@H](CCCCN)C(=O)N1CCC[C@H]1C(=O)N[C@H](C(N)=O)C(C)C` [SHU 9027, Ac[Lys^3,4, DPhe^7]-α-MSH1-13NH2] (Ac-SYKKEH[dF]RWGKPV-NH2): the “Potencies Relative to α-MSH, Frog Skin Assay” value in the assay with frog skin was found to be 0.4.

For `CCCC[C@H](NC(=O)[C@H](CO)NC(=O)[C@H](Cc1ccc(O)cc1)NC(=O)[C@H](CO)NC(C)=O)C(=O)N[C@H]1CCC(=O)NCCCC[C@@H](C(=O)N2CCC[C@H]2C(=O)N[C@H](C(N)=O)C(C)C)NC(=O)CNC(=O)[C@H](Cc2c[nH]c3ccccc23)NC(=O)[C@H](CCCNC(=N)N)NC(=O)[C@@H](Cc2ccccc2)NC(=O)[C@H](Cc2c[nH]cn2)NC1=O` [SHU-9205], in the assay with frog skin, the “Potencies Relative to α-MSH, Frog Skin Assay” value is reported as 1.3.

`CCCC[C@H](NC(=O)[C@H](CO)NC(=O)[C@H](Cc1ccc(O)cc1)NC(=O)[C@H](CO)NC(C)=O)C(=O)N[C@H]1CCC(=O)N[C@@H](CCC(=O)O)C(=O)N[C@@H](CCC(=O)O)C(=O)NCCCC[C@@H](C(=O)N2CCC[C@H]2C(=O)N[C@H](C(N)=O)C(C)C)NC(=O)CNC(=O)[C@H](Cc2c[nH]c3ccccc23)NC(=O)[C@H](CCCNC(=N)N)NC(=O)[C@@H](Cc2ccccc2)NC(=O)[C@H](Cc2c[nH]cn2)NC1=O` [SHU-9207]: the “Potencies Relative to α-MSH, Frog Skin Assay” value in the assay with frog skin was 1.3.

For the compound `CCCC[C@H](NC(=O)[C@H](CO)NC(=O)[C@H](Cc1ccc(O)cc1)NC(=O)[C@H](CO)NC(C)=O)C(=O)N[C@H]1CCC(=O)N[C@@H](CO)C(=O)N[C@@H](CO)C(=O)NCCCC[C@@H](C(=O)N2CCC[C@H]2C(=O)N[C@H](C(N)=O)C(C)C)NC(=O)CNC(=O)[C@H](Cc2c[nH]c3ccccc23)NC(=O)[C@H](CCCNC(=N)N)NC(=O)[C@@H](Cc2ccccc2)NC(=O)[C@H](Cc2c[nH]cn2)NC1=O` [SHU-9209], the “Potencies Relative to α-MSH, Frog Skin Assay” value with frog skin amounted to 5.

As for `CCCC[C@H](NC(=O)[C@H](CO)NC(=O)[C@H](Cc1ccc(O)cc1)NC(=O)[C@H](CO)NC(C)=O)C(=O)N[C@H]1CCC(=O)N[C@H](CCCCN)C(=O)N[C@H](CCCCN)C(=O)NCCCC[C@@H](C(=O)N2CCC[C@H]2C(=O)N[C@H](C(N)=O)C(C)C)NC(=O)CNC(=O)[C@H](Cc2c[nH]c3ccccc23)NC(=O)[C@H](CCCNC(=N)N)NC(=O)[C@@H](Cc2ccccc2)NC(=O)[C@H](Cc2c[nH]cn2)NC1=O` [SHU-9210], the “Potencies Relative to α-MSH, Frog Skin Assay” value in the assay with frog skin is on record as 3.5.

For the origin of these results see patent US5683981A, “Cyclic bridged analogs of α-MSH and methods thereof” (Competitive Technologies, Inc., priority 1995, dated 1997).
